Assay results reported in patent publication US9737075B2, “Synergistic benzoxaborole-containing anti-fungicidal composition” (The Penn State Research Foundation, priority 2015, dated 2017).
Values after ≈ are worked out from the molar mass of the structure shown.

Tests used:
Type in all cases: cell-based
[1] = test system: Botrytis cinerea 10-1728; experiment: Broth microdilution MIC of individual antifungals; conditions: 101728; Botrytis cinerea 10-1728; individual antifungal, 25% PDB, about 25° C., 72 hours; range over N independent triplicate studies; read-out: Independent MIC
[2] = test system: Sclerotinia homoeocarpa; experiment: Broth microdilution MIC of individual antifungals; conditions: Clarireedia homoeocarpa; Sclerotinia homoeocarpa; individual antifungal, 25% PDB, about 25° C., 72 hours; range over N independent triplicate studies; read-out: Independent MIC
[3] = test system: Mucor sp.; experiment: Broth microdilution MIC of individual antifungals; conditions: individual antifungal, 25% PDB, about 25° C., 72 hours, range over N independent triplicate studies
[4] = test system: Fusarium solani f. sp. pisi (MP VI); experiment: Broth microdilution MIC of individual antifungals; conditions: Fusarium solani f. sp. pisi (MP VI); individual antifungal, 25% PDB, about 25° C., 72 hours; range over N independent triplicate studies; read-out: Independent MIC
[5] = test system: Mycosphaerella zeae-maydis; experiment: Broth microdilution MIC of individual antifungals; conditions: Didymella maydis, individual antifungal, 25% PDB, about 25° C., 72 hours, range over N independent triplicate studies
[6] = test system: Stachybotrys chartarum; experiment: Broth microdilution MIC of individual antifungals; conditions: individual antifungal, 25% PDB, about 25° C., 72 hours, range over N independent triplicate studies, read-out: Independent MIC
[7] = test system: Aspergillus fumigatus; experiment: Broth microdilution MIC of individual antifungals; conditions: individual antifungal, 25% PDB, about 25° C., 72 hours, range over N independent triplicate studies, read-out: Independent MIC
[8] = test system: Aspergillus flavus; experiment: Broth microdilution MIC of individual antifungals; conditions: individual antifungal, 25% PDB, about 25° C., 72 hours, range over N independent triplicate studies, read-out: Independent MIC
[9] = test system: Fusarium oxysporum ST33; experiment: Broth microdilution MIC of individual antifungals; conditions: individual antifungal, 25% PDB, about 25° C., 72 hours, range over N independent triplicate studies
[10] = test system: Alternaria solani; experiment: Broth microdilution MIC of individual antifungals; conditions: individual antifungal, 25% PDB, about 25° C., 72 hours, range over N independent triplicate studies, read-out: Independent MIC
[11] = test system: Fusarium oxysporum f. sp. lycopersici; experiment: Broth microdilution MIC of individual antifungals; conditions: individual antifungal, 25% PDB, about 25° C., 72 hours, range over N independent triplicate studies
[12] = test system: Aspergillus niger; experiment: Broth microdilution MIC of individual antifungals; conditions: individual antifungal, 25% PDB, about 25° C., 72 hours, range over N independent triplicate studies, read-out: Independent MIC
[13] = test system: Aureobasidium pullulans; experiment: Broth microdilution MIC of individual antifungals; conditions: individual antifungal, 25% PDB, about 25° C., 72 hours, range over N independent triplicate studies, read-out: Independent MIC
[14] = test system: two dozen different fungal organisms; experiment: Broth microdilution MIC, summary over the organisms examined; conditions: by itself, against the organisms examined (Table 1); regularly
Procedure: All antifungal susceptibility assays were conducted in triplicate and N independent times. Thus, the inhibition studies were conducted a total of 3·N times. […] Thus, each synergy assay (combination of two antifungals) was conducted in conjunction with independent MIC determination. FICI values were calculated by comparing the inhibition activity of the combination (benzoxaborole+another antifungal) against the efficacy of the individual antifungal within the same experiment (using the same experimental conditions).
The studies were performed in flat bottom, 96-well microtiter plates (Greiner Bio-One).
Plates sealed with clear polyester film (VWR) were incubated at a temperature of about 25° C. The progress of fungal growth was monitored at 48 hours, 72 hours, 7 days, and 15 days. […] In order to establish appropriate comparison between the different fungi, the FICI (thus, the MICs used) determination was done at 72 hours for all cases discussed herein.
The MICs of the individual antifungals (MICBoron and MICA) and in combination (MICBA) were determined after 72 hours of incubation. […] MICA is defined as the MIC value of every other individual non-benzoxaborole-based antifungal. MICBA is defined as the MIC value when the benzoxaborole antifungal is combined with another non-benzoxaborole antifungal. […] The combination studies were performed in triplicate in flat bottom 96-well microtiter plates with a final media volume of 0.2 mL/well.

[15] = test system: Fusarium verticillioides; experiment: Broth microdilution MIC of individual antifungals; conditions: individual antifungal, 25% PDB, about 25° C., 72 hours, range over N independent triplicate studies, read-out: Independent MIC
[16] = test system: Botrytis cinerea B17; experiment: Broth microdilution MIC of individual antifungals; conditions: Botrytis cinerea B17; individual antifungal, 25% PDB, about 25° C., 72 hours; range over N independent triplicate studies; read-out: Independent MIC
[17] = test system: Rhizopus sp.; experiment: Broth microdilution MIC of individual antifungals; conditions: Rhizopus, 72 h, Rhizopus sp.; individual antifungal, 25% PDB, about 25° C., 72 hours; range over N independent triplicate studies; read-out: Independent MIC
[18] = test system: Colletotrichum orbiculare; experiment: Broth microdilution MIC of individual antifungals; conditions: individual antifungal, 25% PDB, about 25° C., 72 hours, range over N independent triplicate studies, read-out: Independent MIC
[19] = test system: Magnaporthe grisea; experiment: microbe, parasite or virus in culture; conditions: Pyricularia oryzae, 72 h, read-out: Independent MIC
[20] = test system: Penicillium chrysogenum; experiment: Broth microdilution MIC of individual antifungals; conditions: individual antifungal, 25% PDB, about 25° C., 72 hours, range over N independent triplicate studies, read-out: Independent MIC
[21] = test system: Phytophthora pini; experiment: Broth microdilution MIC of individual antifungals; conditions: individual antifungal, 25% PDB, about 25° C., 72 hours, range over N independent triplicate studies
[22] = test system: Pythium aphanodermatum; experiment: Broth microdilution MIC of individual antifungals; conditions: individual antifungal, 25% PDB, about 25° C., 72 hours, range over N independent triplicate studies
[23] = test system: Candida albicans; experiment: Broth microdilution MIC of individual antifungals; conditions: individual antifungal, 25% PDB, about 25° C., 72 hours, range over N independent triplicate studies, read-out: Independent MIC
[24] = test system: Fusarium graminearum; experiment: microbe, parasite or virus in culture; conditions: Fusarium graminearum, 72 h, read-out: Independent MIC
[25] = test system: Rhizoctonia solani; experiment: Broth microdilution MIC of individual antifungals; conditions: individual antifungal, 25% PDB, about 25° C., 72 hours, range over N independent triplicate studies, read-out: Independent MIC

SMILES: Cc1ccc2c(c1)COB2O [B1, 5-Methyl-1,3-dihydro-2,1-benzoxaborol-1-ol]
- MIC [1]: 2 µg/mL
- MIC [2]: 1 µg/mL
- MIC [3]: 1 µg/mL
- MIC [4]: 2 µg/mL
- MIC [5]: 16 µg/mL
- MIC [6]: 0.5 µg/mL
- MIC [7]: 0.25 µg/mL
- MIC [8]: 2 µg/mL
- MIC [9]: 1 µg/mL
- MIC [10]: 1 µg/mL
- MIC [11]: 1 µg/mL
- MIC [12]: 2 µg/mL
- MIC [13]: 1 µg/mL
- MIC [14]: ≤ 4 µg/mL
- MIC [15]: 0.5 µg/mL
- MIC [16]: 2 µg/mL
- MIC [17]: 16 µg/mL

SMILES: OB1OCc2cc(Cl)ccc21 [B18, 5-chloro-1,3-dihydro-2,1-benzoxaborol-1-ol]
- MIC [18]: 0.78 µg/mL
- MIC [1]: 0.5 to 2 µg/mL
- MIC [2]: 1 to 4 µg/mL
- MIC [3]: 0.5 to 1 µg/mL
- MIC [19]: 0.39 to 1.56 µg/mL (≈ 2.32 to 9.26 µM)
- MIC [20]: 0.19 to 0.38 µg/mL
- MIC [4]: 0.5 µg/mL
- MIC [5]: 4 to 8 µg/mL
- MIC [6]: 0.25 to 1 µg/mL
- MIC [21]: 0.125 µg/mL
- MIC [22]: 0.25 to 2 µg/mL
- MIC [23]: 0.5 to 1 µg/mL
- MIC [7]: 0.125 to 0.25 µg/mL
- MIC [24]: 1 µg/mL (≈ 5.94 µM)
- MIC [8]: 0.5 to 1 µg/mL
- MIC [9]: 0.5 µg/mL
- MIC [10]: 0.5 µg/mL
- MIC [11]: 0.25 µg/mL
- MIC [12]: 0.5 to 2 µg/mL
- MIC [13]: 0.125 µg/mL
- MIC [14]: ≤ 4 µg/mL
- MIC [25]: 1.56 to 8 µg/mL
- MIC [15]: 0.25 to 0.5 µg/mL
- MIC [16]: 0.5 µg/mL
- MIC [17]: 0.5 to 2 µg/mL

SMILES: OB1OCc2cc(F)ccc21 [B90, 5-Fluoro-1,3-dihydro-2,1-benzoxaborol-1-ol]
- MIC [18]: 0.78 to 1.56 µg/mL
- MIC [1]: 0.25 to 0.5 µg/mL
- MIC [2]: 0.25 to 1 µg/mL
- MIC [3]: 0.25 µg/mL
- MIC [19]: 1.25 to 2 µg/mL (≈ 8.23 to 13.2 µM)
- MIC [20]: 0.19 to 0.39 µg/mL
- MIC [4]: 0.5 to 1 µg/mL
- MIC [5]: 1 to 8 µg/mL
- MIC [6]: 0.25 to 0.5 µg/mL
- MIC [22]: 2 to 4 µg/mL
- MIC [23]: 0.5 µg/mL
- MIC [7]: 0.063 to 0.125 µg/mL
- MIC [24]: 0.5 to 2 µg/mL (≈ 3.29 to 13.2 µM)
- MIC [8]: 0.5 to 1 µg/mL
- MIC [9]: 0.25 to 0.5 µg/mL
- MIC [10]: 0.25 to 0.5 µg/mL
- MIC [11]: 0.25 to 0.5 µg/mL
- MIC [12]: 0.25 to 1 µg/mL
- MIC [13]: 0.25 to 0.5 µg/mL
- MIC [14]: ≤ 4 µg/mL
- MIC [25]: 1.56 to 8 µg/mL
- MIC [15]: 0.25 to 0.4 µg/mL
- MIC [16]: 0.5 to 2 µg/mL
- MIC [17]: 1 to 2 µg/mL
